Assay results from US20230089966A1, “METHOD FOR DIFFERENTIATION OF BRAIN MURAL CELLS FROM HUMAN PLURIPOTENT STEM CELLS” (WISCONSIN ALUMNI RESEARCH FOUNDATION, priority 2021, published 2023).
Each block holds one molecule with its values, some of them ahead of it.

Tests used:
[1] = target: T1, Notch intracellular domain-RBPJ assembly (Homo sapiens, UniProt Q06330); assay: Loss-of-function experiment, RT-qPCR of mural cell gene expression; assay type: cell-based; settings: 10 μM CB-103 in culture medium; 6 days after transduction of neural crest cells
T1 construct: corresponding to amino acids 1,662-2,321 of NP_00426.2; initiator Met (start codon supplied by the forward primer) (N); expressed in transfected cells; host or cells: H9 hPSC-derived p75+ neural crest cells transduced with N3ICD-GFP (pWPI-N3ICD) lentivirus; RBPJ is endogenous
Experimental: When neural crest cells reached ˜40-50% confluence (˜2-3 days post-MACS), lentiviral transduction was performed by replacing medium in each well E6-CSFD medium containing 30-50 μL N3ICD-GFP, N1ICD-GFP, or TBX2-GFP lentivirus per mL, or 5-8 μL GFP (control) lentivirus per mL, which achieved transduction efficiencies of 50-80%. E6-CSFD medium was replaced every other day for 6 days. In some experiments, culture medium was supplemented with 10 μM CB-103 (MedChemExpress, Monmouth Junction, N.J.). The resulting cultures were either used directly for analysis or sorted to isolate GFP^+ and GFP^− cells as described below.
RNA extraction was performed using the RNeasy Plus Micro Kit (Qiagen). Cells were lysed with 350 μL Buffer RLT supplemented with 1% β-mercaptoethanol (Sigma) and transferred to gDNA Eliminator spin columns. 350 μL 70% ethanol was added to each lysate, and lysates were loaded onto RNeasy MinElute spin columns. Columns were washed with Buffer RW1, Buffer RPE, and 80% ethanol according to manufacturer protocols. RNA was eluted with RNase-free water and concentration quantified using a NanoDrop 2000 spectrophotometer (Thermo Scientific, Waltham, Mass.). 250-1000 ng of RNA was reverse-transcribed for 1 h at 37° C. using the OmniScript RT Kit (Qiagen) and 1 μM Oligo(dT)12-18 primers (Life Technologies). […]

[2] = system: N3ICD-GFP-transduced culture; assay: Calcium imaging after KCl application; assay type: cell-based, human; settings: 40 mM KCl, 6 days after transduction
Experimental: Calcium imaging was performed 6 days after transduction of a neural crest cultures with N3ICD-GFP lentivirus as described above. FLIPR Calcium 6 dye (Molecular Devices, San Jose, Calif.) was prepared according to manufacturer instructions. 500 μL of prepared dye was added to the existing 500 μL of culture medium and cells incubated at 37° C., 5% CO2 for 2 h. The plate was transferred to a microscope environmental chamber at 37° C., 5% CO2 and equilibrated for 30 min. Images were acquired every 5 s for 300 s using an Eclipse Ti2-E microscope with a 4× objective. At t=50 s, a 1:114 dilution of saturated KCl solution (4.56 M, for a final concentration of 40 mM) was added to the well.

[3] = system: GFP+ cells isolated via FACS from a N3ICD-GFP-transduced culture; assay: Contraction assay (change in cell area); assay type: cell-based, human; settings: 40 mM KCl, 15 min after addition; GFP+ cells 2 days after FACS; water control 0% change
Experimental: The contraction assay was performed 2 days after isolation of GFP^+ cells via FACS from a N3ICD-GFP-transduced culture as described above. The plate was transferred to a microscope environmental chamber at 37° C., 5% CO2 and equilibrated for 30 min. At t=0 min, a 1:114 dilution of saturated potassium chloride solution, or an equivalent volume of water, was added to the culture medium and the plate briefly rocked to mix. Phase contrast images were acquired immediately upon addition of potassium chloride or water and 15 min thereafter using an Eclipse Ti2-E microscope with a 20× objective. The Freehand Selection Tool in ImageJ was used to trace the outlines of 16 cells per 20× field at times 0 and 15 min, and the Measure function used to obtain A0 and A15, the cell areas at times 0 and 15 min, respectively. For each cell, the percent change in area was computed as (A15−A0)/A0×100%.

KATP channels = target: T2, KATP channels (Homo sapiens, UniProt O60706); assay: KATP channel function by calcium imaging after KCl-induced depolarization; assay type: cell-based; settings: 20 μM pinacidil pretreatment, 40 mM KCl, 30 s after addition
T2 construct: endogenous in cells; host or cells: hPSC-derived neural crest cultures 6 days after transduction with GFP or N3ICD-GFP lentivirus
Experimental: To assess function of KATP channels, cells 6 days after transduction with GFP or N3ICD-GFP lentiviruses were labeled with FLIPR Calcium 6 dye as above, and 20 μM pinacidil (Santa Cruz Biotechnology, Dallas, Tex.) or DMSO added 1.5 h after addition of dye. After an additional 30 min incubation, the plate was transferred to the microscope environmental chamber. Images were acquired every 5 s for 60 s and 40 mM KCl added at t=20 s. Mean fluorescence intensity was quantified as above.

T2 sequence (O60706 whole entry): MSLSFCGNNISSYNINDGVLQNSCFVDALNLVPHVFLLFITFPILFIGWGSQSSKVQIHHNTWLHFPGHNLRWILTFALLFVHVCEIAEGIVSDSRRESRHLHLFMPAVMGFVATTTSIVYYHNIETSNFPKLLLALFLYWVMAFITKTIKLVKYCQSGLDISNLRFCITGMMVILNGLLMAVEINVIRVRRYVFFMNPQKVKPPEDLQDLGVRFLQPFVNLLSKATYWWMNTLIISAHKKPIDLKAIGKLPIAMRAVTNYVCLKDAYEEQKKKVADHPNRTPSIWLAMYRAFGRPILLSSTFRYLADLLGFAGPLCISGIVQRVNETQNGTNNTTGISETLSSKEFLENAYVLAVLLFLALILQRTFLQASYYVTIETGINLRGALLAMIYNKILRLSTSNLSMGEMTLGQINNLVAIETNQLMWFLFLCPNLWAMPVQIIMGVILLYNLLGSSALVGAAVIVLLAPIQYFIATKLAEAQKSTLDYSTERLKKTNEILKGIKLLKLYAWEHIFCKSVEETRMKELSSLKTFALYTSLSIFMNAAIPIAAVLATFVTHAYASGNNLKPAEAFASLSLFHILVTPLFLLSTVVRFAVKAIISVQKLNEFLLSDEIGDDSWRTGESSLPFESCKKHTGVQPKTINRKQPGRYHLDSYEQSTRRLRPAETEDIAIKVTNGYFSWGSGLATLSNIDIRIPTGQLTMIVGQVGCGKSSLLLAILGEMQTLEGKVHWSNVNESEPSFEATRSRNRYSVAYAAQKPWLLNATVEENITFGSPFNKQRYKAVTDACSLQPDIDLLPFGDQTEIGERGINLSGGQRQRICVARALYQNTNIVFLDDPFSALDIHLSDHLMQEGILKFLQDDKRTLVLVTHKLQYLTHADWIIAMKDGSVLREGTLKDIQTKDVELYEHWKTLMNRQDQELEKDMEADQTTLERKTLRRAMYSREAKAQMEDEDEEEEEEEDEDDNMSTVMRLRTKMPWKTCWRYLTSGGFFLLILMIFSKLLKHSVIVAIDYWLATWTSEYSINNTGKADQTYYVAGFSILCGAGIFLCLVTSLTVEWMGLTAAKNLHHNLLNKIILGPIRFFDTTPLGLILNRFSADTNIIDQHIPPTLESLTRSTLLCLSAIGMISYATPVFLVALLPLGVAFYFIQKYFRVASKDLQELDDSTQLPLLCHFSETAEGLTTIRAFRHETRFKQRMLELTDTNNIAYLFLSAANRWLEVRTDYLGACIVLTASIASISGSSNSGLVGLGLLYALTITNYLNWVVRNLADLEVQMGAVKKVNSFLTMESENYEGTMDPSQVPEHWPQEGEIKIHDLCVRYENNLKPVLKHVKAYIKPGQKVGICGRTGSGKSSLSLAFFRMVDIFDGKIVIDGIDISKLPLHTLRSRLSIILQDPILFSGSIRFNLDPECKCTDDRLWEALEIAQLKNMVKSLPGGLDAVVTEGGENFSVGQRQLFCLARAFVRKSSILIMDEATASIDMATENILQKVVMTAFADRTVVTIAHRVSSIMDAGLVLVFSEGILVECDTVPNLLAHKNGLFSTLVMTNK
T2 sequence (Q15842 whole entry partner): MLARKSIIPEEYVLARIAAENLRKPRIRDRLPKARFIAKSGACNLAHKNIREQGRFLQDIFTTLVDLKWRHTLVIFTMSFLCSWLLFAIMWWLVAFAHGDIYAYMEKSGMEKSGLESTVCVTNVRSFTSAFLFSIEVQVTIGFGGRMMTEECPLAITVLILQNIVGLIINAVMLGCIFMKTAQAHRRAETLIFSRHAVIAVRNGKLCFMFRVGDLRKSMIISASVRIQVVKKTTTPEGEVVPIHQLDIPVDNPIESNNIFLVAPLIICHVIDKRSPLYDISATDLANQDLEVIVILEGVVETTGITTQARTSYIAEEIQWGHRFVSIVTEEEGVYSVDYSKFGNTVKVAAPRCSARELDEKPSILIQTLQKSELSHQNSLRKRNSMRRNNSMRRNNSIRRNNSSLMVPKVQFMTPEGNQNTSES
T1 sequence (Q06330 whole entry, the tested form may be a part): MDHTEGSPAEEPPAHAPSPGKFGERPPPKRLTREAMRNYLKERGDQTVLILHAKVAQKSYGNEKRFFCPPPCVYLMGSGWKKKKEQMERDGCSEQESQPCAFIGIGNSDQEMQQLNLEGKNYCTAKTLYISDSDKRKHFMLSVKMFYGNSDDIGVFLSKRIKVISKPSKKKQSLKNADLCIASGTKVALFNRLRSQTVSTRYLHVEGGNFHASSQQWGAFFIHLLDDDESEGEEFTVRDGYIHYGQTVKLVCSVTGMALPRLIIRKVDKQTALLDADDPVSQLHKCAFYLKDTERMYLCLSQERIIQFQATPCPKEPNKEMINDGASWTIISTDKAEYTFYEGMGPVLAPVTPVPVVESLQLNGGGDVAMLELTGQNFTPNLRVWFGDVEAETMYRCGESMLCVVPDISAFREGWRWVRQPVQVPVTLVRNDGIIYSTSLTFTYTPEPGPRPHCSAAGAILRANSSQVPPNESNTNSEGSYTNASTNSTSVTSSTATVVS

Structure (SMILES): CC(C)(C)c1ccc(Oc2ccc(N)cn2)cc1 [CB-103]
Notch-dependence of N3ICD-GFP-mediated transcriptional changes [1]: confirmed that N3ICD-GFP-mediated transcriptional changes occurred via a canonical Notch transactivation mechanism

Structure (SMILES): [Cl-].[K+] [KCl, potassium chloride]
Calcium response of cells to KCl application [2]: led to depolarization and calcium influx
average reduction in area of cells [3]: approximately 7%

intracellular calcium after KCl-induced depolarization versus DMSO-treated cells (KATP channels; GFP-transduced cultures): such a difference was not observed
intracellular calcium after KCl-induced depolarization versus DMSO-treated cells (KATP channels; N3ICD-GFP-transduced cultures): reduced intracellular calcium
Structure (SMILES): CC(N/C(=N\C#N)Nc1ccncc1)C(C)(C)C (centres unmarked) [pinacidil]
